Measured values as given in patent publication US8410153B2, “Naphthalene isoxazoline invertebrate pest control agents” (E.I. du Pont de Nemours and Company, priority 2007, dated 2013).

How the values were obtained:
Format in all cases: in vivo
[1] = tested on: diamondback moth (Plutella xylostella); assay: Test A: control of diamondback moth on radish plant, foliar spray; conditions: sprayed at 50 ppm, held 6 days
Excerpt: For evaluating control of diamondback moth (Plutella xylostella) the test unit consisted of a small open container with a 12-14-day-old radish plant inside. This was pre-infested with about 50 neonate larvae that were dispensed into the test unit via corncob grits using a bazooka inoculator. The larvae moved onto the test plant after being dispensed into the test unit.
(§1) Test compounds were formulated using a solution containing 10% acetone, 90% water and 300 ppm X-77™ Spreader Lo-Foam Formula non-ionic surfactant containing alkylarylpolyoxyethylene, free fatty acids, glycols and isopropanol (Loveland Industries, Inc. Greeley, Colo., USA). The formulated compounds were applied in 1 mL of liquid through a SUJ2 atomizer nozzle with ⅛ JJ custom body (Spraying Systems Co. Wheaton, Ill., USA) positioned 1.27 cm (0.5 inches) above the top of each test unit. All experimental compounds in these tests were sprayed at 50 ppm, and the test was replicated three times. After spraying of the formulated test compound, each test unit was allowed to dry for 1 h and then a black, screened cap was placed on top. The test units were held for 6 days in a growth chamber at 25° C. and 70% relative humidity. Plant feeding damage was then visually assessed based on foliage consumed, and a pest mortality rating was also counted and calculated for each test unit.

[2] = tested on: western flower thrips (Frankliniella occidentalis); assay: Test E: control of western flower thrips on Soleil bean plant, contact and/or systemic; conditions: held 6 days
Procedure: as §1
For evaluating control of the western flower thrips (Frankliniella occidentalis) through contact and/or systemic means, the test unit consisted of a small open container with a 5-7-day-old Soleil Bean plant inside. Test compounds were formulated and sprayed as described for Test A. All experimental compounds in these tests were sprayed at 250 or 50 ppm as noted, and the test was replicated three times. After spraying, the test units were allowed to dry for 1 h, 22-27 adult thrips were added to each unit and then a black, screened cap was placed on top. The test units were held for 6 days at 25° C. and 45-55% relative humidity. A mortality rating was assessed along with a plant damage rating for each test unit.

[3] = tested on: fall armyworm (Spodoptera frugiperda); assay: Test B: control of fall armyworm on corn (maize) plant, foliar spray; conditions: sprayed at 50 ppm
Procedure: as §1
For evaluating control of fall armyworm (Spodoptera frugiperda) the test unit consisted of a small open container with a 4-5-day-old corn (maize) plant inside. This was pre-infested (using a core sampler) with 10-15 1-day-old larvae on a piece of insect diet. Test compounds were formulated and sprayed at 50 ppm as described for Test A and replicated three times. After spraying, the test units were maintained in a growth chamber and then the control efficacy was rated for each test unit as described for Test A.

CSCCCNC(=O)c1ccc(C2=NOC(c3cc(Cl)cc(Cl)c3)(C(F)(F)F)C2)c2ccccc12 (stereo not shown) [Compound 22]
levels of control efficacy (20% or less feeding damage or 80% or more mortality) [1]: very good to excellent
levels of control efficacy (20% or less feeding damage or 80% or more mortality) ([2]; sprayed at 50 ppm): very good to excellent
levels of control efficacy (20% or less feeding damage or 80% or more mortality) ([2]; sprayed at 250 ppm): very good to excellent
levels of control efficacy (20% or less feeding damage or 80% or more mortality) [3]: very good to excellent

CCC(CO)NC(=O)c1ccc(C2=NOC(c3cccc(C(F)(F)F)c3)(C(F)(F)F)C2)c2ccccc12 (mixture of isomers) [Compound 46]
levels of control efficacy (20% or less feeding damage or 80% or more mortality) [1]: very good to excellent
levels of control efficacy (20% or less feeding damage or 80% or more mortality) [3]: very good to excellent

O=C(CNC(=O)c1ccc(C2=NOC(c3cccc(OC(F)(F)F)c3)(C(F)(F)F)C2)c2ccccc12)NCC(F)(F)F (stereo not shown) [Compound 72]
levels of control efficacy (20% or less feeding damage or 80% or more mortality) [1]: very good to excellent
levels of control efficacy (20% or less feeding damage or 80% or more mortality) [3]: very good to excellent

CCNC(=O)C(C)NC(=O)c1ccc(C2=NOC(c3cc(Cl)cc(C(F)(F)F)c3)(C(F)(F)F)C2)c2ccccc12 (mixture of isomers) [Compound 126]
levels of control efficacy (20% or less feeding damage or 80% or more mortality) [3]: very good to excellent

CNC(=O)C(C)NC(=O)c1ccc(C2=NOC(c3cc(Cl)cc(C(F)(F)F)c3)(C(F)(F)F)C2)c2ccccc12 (mixture of isomers) [Compound 125]
levels of control efficacy (20% or less feeding damage or 80% or more mortality) [3]: very good to excellent

CNC(=O)CNC(=O)c1ccc(C2=NOC(c3cc(Cl)cc(C(F)(F)F)c3)(C(F)(F)F)C2)c2ccccc12 (stereo not shown) [Compound 116]
levels of control efficacy (20% or less feeding damage or 80% or more mortality) [1]: very good to excellent
levels of control efficacy (20% or less feeding damage or 80% or more mortality) [3]: very good to excellent

CC(C)SCCNC(=O)c1ccc(C2=NOC(c3cccc(C(F)(F)F)c3)(C(F)(F)F)C2)c2ccccc12 (racemic) [Compound 55]
levels of control efficacy (20% or less feeding damage or 80% or more mortality) [1]: very good to excellent
levels of control efficacy (20% or less feeding damage or 80% or more mortality) [3]: very good to excellent

O=C(CNC(=O)c1ccc(C2=NOC(c3cc(Cl)cc(Cl)c3)(C(F)(F)F)C2)c2ccccc12)NCCCl (stereo not shown) [Compound 10]
levels of control efficacy (20% or less feeding damage or 80% or more mortality) [1]: very good to excellent
levels of control efficacy (20% or less feeding damage or 80% or more mortality) [3]: very good to excellent

CC(CO)NC(=O)c1ccc(C2=NOC(c3cc(C(F)(F)F)cc(C(F)(F)F)c3)(C(F)(F)F)C2)c2ccccc12 (stereo not shown) [Compound 68]
levels of control efficacy (20% or less feeding damage or 80% or more mortality) [1]: very good to excellent
levels of control efficacy (20% or less feeding damage or 80% or more mortality) [3]: very good to excellent

CCC(O)CNC(=O)c1ccc(C2=NOC(c3cccc(C(F)(F)F)c3)(C(F)(F)F)C2)c2ccccc12 (stereo not shown) [Compound 64]
levels of control efficacy (20% or less feeding damage or 80% or more mortality) [1]: very good to excellent
levels of control efficacy (20% or less feeding damage or 80% or more mortality) [3]: very good to excellent

CC(NC(=O)c1ccc(C2=NOC(c3cc(Cl)cc(C(F)(F)F)c3)(C(F)(F)F)C2)c2ccccc12)C(=O)NCC(F)(F)F (mixture of isomers) [Compound 127]
levels of control efficacy (20% or less feeding damage or 80% or more mortality) [3]: very good to excellent

CCCNC(=O)C(C)NC(=O)c1ccc(C2=NOC(c3cc(C(F)(F)F)cc(C(F)(F)F)c3)(C(F)(F)F)C2)c2ccccc12 (stereo not shown) [Compound 89]
levels of control efficacy (20% or less feeding damage or 80% or more mortality) [3]: very good to excellent

O=C(CNC(=O)c1ccc(C2=NOC(c3cc(Cl)cc(Cl)c3)(C(F)(F)F)C2)c2ccccc12)NCC(F)(F)C(F)(F)C(F)(F)F (stereo not shown) [Compound 13]
levels of control efficacy (20% or less feeding damage or 80% or more mortality) [1]: very good to excellent
levels of control efficacy (20% or less feeding damage or 80% or more mortality) [3]: very good to excellent

O=C(NCO)c1ccc(C2=NOC(c3cc(Cl)cc(Cl)c3)(C(F)(F)F)C2)c2ccccc12 (stereo not shown) [Compound 82]
levels of control efficacy (20% or less feeding damage or 80% or more mortality) [1]: very good to excellent
levels of control efficacy (20% or less feeding damage or 80% or more mortality) [3]: very good to excellent

O=C(NCCO)c1ccc(C2=NOC(c3cc(C(F)(F)F)cc(C(F)(F)F)c3)(C(F)(F)F)C2)c2ccccc12 (stereo not shown) [Compound 69]
levels of control efficacy (20% or less feeding damage or 80% or more mortality) [1]: very good to excellent
levels of control efficacy (20% or less feeding damage or 80% or more mortality) [3]: very good to excellent

CC(O)(CNC(=O)c1ccc(C2=NOC(c3cccc(C(F)(F)F)c3)(C(F)(F)F)C2)c2ccccc12)C(F)(F)F (mixture of isomers) [Compound 45]
levels of control efficacy (20% or less feeding damage or 80% or more mortality) [1]: very good to excellent
levels of control efficacy (20% or less feeding damage or 80% or more mortality) [3]: very good to excellent

CC(NC(=O)CNC(=O)c1ccc(C2=NOC(c3cc(Cl)cc(C(F)(F)F)c3)(C(F)(F)F)C2)c2ccccc12)C(F)(F)F (stereo not shown) [Compound 113]
levels of control efficacy (20% or less feeding damage or 80% or more mortality) [1]: very good to excellent
levels of control efficacy (20% or less feeding damage or 80% or more mortality) [3]: very good to excellent

CC(NC(=O)c1ccc(C2=NOC(c3cc(Cl)cc(C(F)(F)F)c3)(C(F)(F)F)C2)c2ccccc12)C(=O)NC(C)C(F)(F)F (stereo not shown) [Compound 115]
levels of control efficacy (20% or less feeding damage or 80% or more mortality) [1]: very good to excellent
levels of control efficacy (20% or less feeding damage or 80% or more mortality) [3]: very good to excellent

CC(C)CNC(=O)C(C)NC(=O)c1ccc(C2=NOC(c3cc(Cl)cc(C(F)(F)F)c3)(C(F)(F)F)C2)c2ccccc12 (mixture of isomers) [Compound 130]
levels of control efficacy (20% or less feeding damage or 80% or more mortality) [3]: very good to excellent

O=C(CNC(=O)c1ccc(C2=NOC(c3cc(Cl)cc(Cl)c3)(C(F)(F)F)C2)c2ccccc12)NCC(F)(F)C(F)(F)F (stereo not shown) [Compound 14]
levels of control efficacy (20% or less feeding damage or 80% or more mortality) [1]: very good to excellent
levels of control efficacy (20% or less feeding damage or 80% or more mortality) [3]: very good to excellent

C[S+]([O-])CCNC(=O)c1ccc(C2=NOC(c3cc(Cl)cc(C(F)(F)F)c3)(C(F)(F)F)C2)c2ccccc12 (stereo not shown) [Compound 114]
levels of control efficacy (20% or less feeding damage or 80% or more mortality) [1]: very good to excellent
levels of control efficacy (20% or less feeding damage or 80% or more mortality) [3]: very good to excellent

CC(NC(=O)CNC(=O)c1ccc(C2=NOC(c3cc(C(F)(F)F)cc(C(F)(F)F)c3)(C(F)(F)F)C2)c2ccccc12)C(F)(F)F (stereo not shown) [Compound 91]
levels of control efficacy (20% or less feeding damage or 80% or more mortality) ([2]; sprayed at 50 ppm): very good to excellent
levels of control efficacy (20% or less feeding damage or 80% or more mortality) [3]: very good to excellent

CSCCNC(=O)c1ccc(C2=NOC(c3cccc(OC(F)(F)F)c3)(C(F)(F)F)C2)c2ccccc12 (stereo not shown) [Compound 71]
levels of control efficacy (20% or less feeding damage or 80% or more mortality) [1]: very good to excellent
levels of control efficacy (20% or less feeding damage or 80% or more mortality) [3]: very good to excellent

CC(C)SCCCNC(=O)c1ccc(C2=NOC(c3cccc(C(F)(F)F)c3)(C(F)(F)F)C2)c2ccccc12 (racemic) [Compound 56]
levels of control efficacy (20% or less feeding damage or 80% or more mortality) [1]: very good to excellent
levels of control efficacy (20% or less feeding damage or 80% or more mortality) [3]: very good to excellent

O=C(CNC(=O)c1ccc(C2=NOC(c3cccc(Br)c3)(C(F)(F)F)C2)c2ccccc12)NCC(F)(F)F (stereo not shown) [Compound 70]
levels of control efficacy (20% or less feeding damage or 80% or more mortality) [1]: very good to excellent
levels of control efficacy (20% or less feeding damage or 80% or more mortality) [3]: very good to excellent

CCCNC(=O)C(C)NC(=O)c1ccc(C2=NOC(c3cc(Cl)cc(C(F)(F)F)c3)(C(F)(F)F)C2)c2ccccc12 (mixture of isomers) [Compound 129]
levels of control efficacy (20% or less feeding damage or 80% or more mortality) [3]: very good to excellent

CC(C)NC(=O)C(C)NC(=O)c1ccc(C2=NOC(c3cc(Cl)cc(C(F)(F)F)c3)(C(F)(F)F)C2)c2ccccc12 (mixture of isomers) [Compound 128]
levels of control efficacy (20% or less feeding damage or 80% or more mortality) [3]: very good to excellent

CC(O)CCNC(=O)c1ccc(C2=NOC(c3cccc(C(F)(F)F)c3)(C(F)(F)F)C2)c2ccccc12 (mixture of isomers) [Compound 44]
levels of control efficacy (20% or less feeding damage or 80% or more mortality) [1]: very good to excellent
levels of control efficacy (20% or less feeding damage or 80% or more mortality) ([2]; sprayed at 50 ppm): very good to excellent
levels of control efficacy (20% or less feeding damage or 80% or more mortality) ([2]; sprayed at 250 ppm): very good to excellent

CCCNC(=O)C(C)NC(=O)c1ccc(C2=NOC(c3cc(Cl)cc(C(F)(F)F)c3)(C(F)(F)F)C2)c2ccccc12 (mixture of isomers) [Compound 108]
levels of control efficacy (20% or less feeding damage or 80% or more mortality) [1]: very good to excellent
levels of control efficacy (20% or less feeding damage or 80% or more mortality) ([2]; sprayed at 50 ppm): very good to excellent
levels of control efficacy (20% or less feeding damage or 80% or more mortality) ([2]; sprayed at 250 ppm): very good to excellent
